Patent US7605184B2, “Method of anesthesia” (priority 2008, dated 2009)
Like-named read-outs stand apart in the source and are kept apart here.

Assays:
[1] = degradation by wet (normal) carbon dioxide absorbents at 40° C., gas chromatography; assay type: physicochemical; details: for % Degraded per Minute: 100 mL anesthetic
Experimental: Nine milligrams of the compound of formula (1) were placed in each of three 600 ml flasks containing 100 g of soda lime and maintained at 40° C. The 40° C. temperature is chosen to mimic that generated by the exothermic reaction of carbon dioxide with absorbent in a system wherein all gases are rebreathed. Soda lime contains sodium hydroxide as well as approximately 80% calcium hydroxide. A control flask contained the compound of formula (1) but no soda lime. Samples were taken at various timepoints and analyzed by gas chromatography using a flame ionization detector. […] It will be noted that the Y-axis is on a log scale so that the depletion is quite dramatic.
The procedure was identical to that of Example 1 except that an absorbent containing only calcium hydroxide as the base was used. This absorbent is marketed under the trademark Amsorb®.
The dramatic decrease in degradation with substitution of Amsorb® for soda lime applies to other absorbents that are composed of calcium hydroxide but contain minimal or no monovalent bases, LoFloSorb® and Drägersorb® Free. The general procedure of Example 1 was repeated using these two commercially available absorbents. […] All studies were conducted at 40° C. In all cases, the absorbents were “wet” (contained approximately 15% water by weight). The data in the table were obtained using the protocol set forth above wherein 100 g of absorbent was placed in a 600 mL flask, and 100 mL of anesthetic at the indicated concentration was inserted. Each study was done in triplicate. […] Values for % degraded per minute are given as the average and standard deviation (SD).

[2] = Strum et al. 1987; cited from earlier work
[3] = currently used anesthetics; cited from earlier work
[4] = degradation by desiccated (dry) carbon dioxide absorbents at 40° C.; assay type: physicochemical; details: for % Degr Per min: 40° C.
Experimental: Drying was accomplished by placing wet absorbent in a large flask receiving 1-1.5 L/min of oxygen (dry; no water vapor) for 4 days. The flask rested in an incubator at 50° C. The absorbent contained in the flask was weighed repeatedly (to essentially constant weight loss).
As above, all studies were conducted at 40° C. Desiccated (dry) absorbent (grams indicated) was placed in a 600 mL flask, and 100 or 200 mL of anesthetic at the indicated concentration was inserted. […] Values for % degraded per minute are given as the average and standard deviation (SD).

[5] = test system: murine models; details: cited from earlier work
[6] = blood/gas partition coefficient; assay type: physicochemical
Excerpt: One highly desirable property of an inhaled anesthetic is that it permits rapid recovery once the administration of the anesthetic is halted. Typically, during surgical procedures, the subject is continuously administered the anesthetic, and it is helpful if the subject can recover as quickly as possible as soon as administration is stopped. The length of time required for such recovery is a function of the solubility of the anesthetic in the blood, which mimics solubility in the brain. Thus, anesthetics with very low blood/gas partition coefficients are highly desirable. The blood/gas partition coefficient for desflurane is 0.45; for sevoflurane is 0.65 and for isoflurane is even higher. The blood/gas partition coefficient for the compound of formula (1) is only 0.21, making it highly advantageous as permitting more rapid recovery than any of the currently used anesthetics.

[7] = test system: rats; experiment: MAC in rats; assay type: in vivo; details: five rats, 37° C. (normothermic)
Excerpt: (§1) Clearly another significant property of an anesthetic is its ability to effect anesthesia in the first place. […] The minimum alveolar concentration of anesthetic at which 50% of subjects move in response to a noxious stimulus is designated “MAC.” In the case of 30-60 year old adult humans, the MAC values are 0.06 atm (i.e., 6%) for desflurane, 0.0115 atm (1.15%) for isoflurane and 0.0185 atm (1.85%) for sevoflurane). An alternative measurement similar to MAC that is based on the righting reflex in mice gave a value for the compound of formula (1) of 0.05 atm (5%). The value obtained in this alternative assay approximates but is usually a bit less than MAC.
In an additional experiment, conducted at 37° C. which is normothermic, five rats were anesthetized using the compound of formula (1) and the MAC value found was 8.34±0.84%.

[8] = test system: mice and rats; experiment: recovery, CNS irritation and survival after anesthesia in mice and rats; assay type: in vivo
[9] = test system: mice; experiment: loss of righting reflex in mice; assay type: in vivo; details: four mice, closed system with Amsorb, rectal temperature 30° C. (hypothermic)
Excerpt: as §1
In a closed system employing Amsorb® as the absorbent, four mice were anesthetized using the compound of formula (1). The righting reflex was lost at 3.22±0.54% of formula (1). The rectal temperature of the mice at the end of this experiment was 30° C. which is hypothermic for mice. Hypothermia decreases anesthetic requirement (Eger, E. I. II and Johnson, B. H.; Anesth Analg (1987) 66:974-976), and thus this experiment probably underestimated the concentration producing the loss of righting reflex.

[10] = dry Amsorb 100 g, 100 mL injected
[11] = dry Drägersorb Free 25 g, 100 mL injected
[12] = dry LoFloSorb 25 g, 100 mL injected
[13] = dry LoFloSorb 50 g, 200 mL injected

## FCOC(C(F)(F)F)C(F)(F)F [Sevoflurane, sevoflurane, reference compound]
[1]; wet Drägersorb Free 100 g
  % Degraded per Minute: −0.058%
[2]
  degradation in soda lime: 13 % per hour
[3]
  blood/gas partition coefficient: 0.65
[4]; [10]
  % Degr Per min: 5.01%
[4]; [11]
  % Degr Per min: 0.52%
[4]; [12]
  % Degr Per min: 38.5%

## FC(F)OC(C(F)(F)F)C(F)(F)F [Formula (1), CHF2—O—CH(CF3)2]
[5]; Speers et al., J. Med. Chem. 1971
  anesthetic quality: good anesthetic
[5]; murine models, Speers et al. 1971
  side effects: undesirable side effects
[6]
  blood/gas partition coefficient: 0.21
[7]
  MAC value: 8.34±0.84%
[1]; 9 mg, 100 g soda lime, 600 ml flask, after 30 min
  degradation in flasks containing soda lime (FIG. 2): essentially complete degradation
[1]; 100 g Amsorb (calcium hydroxide only), 30 min interval
  percentage of compound in the flask (FIG. 3): remained constant
[1]; wet Amsorb 100 g
  % Degraded per Minute: −0.05%
[1]; wet Drägersorb Free 100 g
  % Degraded per Minute: 0.102%
[1]; wet LoFloSorb 100 g
  % Degraded per Minute: 0.2%
[1]; wet Soda Lime 100 g
  % Degraded per Minute: 25.0%
[8]; 24 hours after anesthesia, mice and rats
  survival: All survived for 24 hours in apparent good health
[8]; mice and rats
  time to awake after administration of the anesthetic was stopped: 2 to 3 min
[8]; mice and rats anesthetized
  irritation of the central nervous system: In neither of these cases was there irritation of the central nervous system
[9]
  concentration at which the righting reflex was lost: 3.22±0.54%
[4]; dry Amsorb 20 g, 100 mL injected
  % Degr Per min: 0.7%
[4]; [10]
  % Degr Per min: 2.7%
[4]; dry Amsorb, three flasks, repeated additions
  rate of degradation on repeated addition of anesthetic (FIG. 4): progressively decreased
[4]; [11]
  % Degr Per min: 0.28%
[4]; [12]
  % Degr Per min: 55.0%
[4]; [13]
  % Degr Per min: 40.7%

## FC(F)OC(F)C(F)(F)F (centres unmarked) [Desflurane, desflurane, reference compound]
[3]
  blood/gas partition coefficient: 0.45
[4]; dry Amsorb 50 g, 100 mL injected
  % Degr Per min: −0.1%
[4]; [13]
  % Degr Per min: 0.5%
